Data as given in patent publication US8148391B2 (Cephalon, Inc., priority 2006, dated 2012).
Where two headings read alike, the source gives them in different places.

How the values were obtained:
[1] = target: T1, baculovirus-expressed ALK (Homo sapiens, UniProt Q9UM73); assay: ALK Kinase Assay (ELISA-type, time-resolved fluorescence); format: biochemical
T1 construct: host or cells: baculovirus expression system
How it was run: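 Substrate coating: phospholipase C-γ, 10 μg/mL in TBS. Kinase step: 30 ng/ml ALK, 15 min, 37° C. Detection and analysis: Eu-N1 PT66 antibody, with IC50 fitted as a sigmoidal variable-slope dose-response curve.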

[2] = target: T2, c-Met (cytoplasmic domain) (Homo sapiens, UniProt P08581); assay: c-Met Kinase Assay (same methods as for ALK, with modifications); format: biochemical
T2 construct: 10 ng/mL c-Met (cytoplasmic domain, Invitrogen Corporation #PV3143); purchased Invitrogen Corporation PV3143
T2 sequence (P08581 956-1390 limits assumed): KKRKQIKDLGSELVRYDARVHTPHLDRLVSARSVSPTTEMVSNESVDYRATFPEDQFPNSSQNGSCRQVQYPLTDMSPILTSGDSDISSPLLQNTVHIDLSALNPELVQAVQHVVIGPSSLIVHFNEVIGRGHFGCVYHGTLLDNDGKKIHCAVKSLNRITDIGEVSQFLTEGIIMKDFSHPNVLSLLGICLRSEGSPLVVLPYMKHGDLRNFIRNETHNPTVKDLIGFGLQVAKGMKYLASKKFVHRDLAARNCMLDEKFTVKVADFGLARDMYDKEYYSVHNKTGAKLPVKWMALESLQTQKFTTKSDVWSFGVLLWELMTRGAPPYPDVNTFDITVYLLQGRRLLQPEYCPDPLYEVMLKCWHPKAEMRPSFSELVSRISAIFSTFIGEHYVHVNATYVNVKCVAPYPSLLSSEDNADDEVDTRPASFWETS
How it was run: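 Wells were coated with 10 μg/mL phospholipase C-γ substrate in TBS, and reactions were started with 10 ng/mL c-Met cytoplasmic domain and run at 37° C for 15 minutes. Phosphorylated product was detected with Eu-N1-labeled PT66 antibody. IC50 values came from sigmoidal variable-slope fits of percent inhibition versus log compound concentration.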

[3] = 1 μM ATP (Km level), 30 ng/ml ALK, 37° C., 15 minutes, read-out: ALK Activity (ALK kinase inhibition, IC50 class)
[4] = 1 μM ATP (Km level), 10 ng/mL c-Met, read-out: cMet Activity (c-Met kinase inhibition, IC50 class)
[5] = ALK kinase inhibition, 1 μM ATP, read-out: ALK Activity
[6] = c-Met kinase inhibition, 1 μM ATP, read-out: cMet Activity
[7] = 1 μM ATP (Km level), read-out: ALK Activity (ALK Kinase Inhibition, IC50)
[8] = ALK kinase inhibition, 1 μM ATP (Km level), read-out: ALK Activity
[9] = c-Met kinase inhibition, 1 μM ATP (Km level), read-out: cMet Activity
[10] = 1 μM ATP (Km level), read-out: cMet Activity (c-Met Kinase Inhibition, IC50)

T1 sequence (Q9UM73 19-1620): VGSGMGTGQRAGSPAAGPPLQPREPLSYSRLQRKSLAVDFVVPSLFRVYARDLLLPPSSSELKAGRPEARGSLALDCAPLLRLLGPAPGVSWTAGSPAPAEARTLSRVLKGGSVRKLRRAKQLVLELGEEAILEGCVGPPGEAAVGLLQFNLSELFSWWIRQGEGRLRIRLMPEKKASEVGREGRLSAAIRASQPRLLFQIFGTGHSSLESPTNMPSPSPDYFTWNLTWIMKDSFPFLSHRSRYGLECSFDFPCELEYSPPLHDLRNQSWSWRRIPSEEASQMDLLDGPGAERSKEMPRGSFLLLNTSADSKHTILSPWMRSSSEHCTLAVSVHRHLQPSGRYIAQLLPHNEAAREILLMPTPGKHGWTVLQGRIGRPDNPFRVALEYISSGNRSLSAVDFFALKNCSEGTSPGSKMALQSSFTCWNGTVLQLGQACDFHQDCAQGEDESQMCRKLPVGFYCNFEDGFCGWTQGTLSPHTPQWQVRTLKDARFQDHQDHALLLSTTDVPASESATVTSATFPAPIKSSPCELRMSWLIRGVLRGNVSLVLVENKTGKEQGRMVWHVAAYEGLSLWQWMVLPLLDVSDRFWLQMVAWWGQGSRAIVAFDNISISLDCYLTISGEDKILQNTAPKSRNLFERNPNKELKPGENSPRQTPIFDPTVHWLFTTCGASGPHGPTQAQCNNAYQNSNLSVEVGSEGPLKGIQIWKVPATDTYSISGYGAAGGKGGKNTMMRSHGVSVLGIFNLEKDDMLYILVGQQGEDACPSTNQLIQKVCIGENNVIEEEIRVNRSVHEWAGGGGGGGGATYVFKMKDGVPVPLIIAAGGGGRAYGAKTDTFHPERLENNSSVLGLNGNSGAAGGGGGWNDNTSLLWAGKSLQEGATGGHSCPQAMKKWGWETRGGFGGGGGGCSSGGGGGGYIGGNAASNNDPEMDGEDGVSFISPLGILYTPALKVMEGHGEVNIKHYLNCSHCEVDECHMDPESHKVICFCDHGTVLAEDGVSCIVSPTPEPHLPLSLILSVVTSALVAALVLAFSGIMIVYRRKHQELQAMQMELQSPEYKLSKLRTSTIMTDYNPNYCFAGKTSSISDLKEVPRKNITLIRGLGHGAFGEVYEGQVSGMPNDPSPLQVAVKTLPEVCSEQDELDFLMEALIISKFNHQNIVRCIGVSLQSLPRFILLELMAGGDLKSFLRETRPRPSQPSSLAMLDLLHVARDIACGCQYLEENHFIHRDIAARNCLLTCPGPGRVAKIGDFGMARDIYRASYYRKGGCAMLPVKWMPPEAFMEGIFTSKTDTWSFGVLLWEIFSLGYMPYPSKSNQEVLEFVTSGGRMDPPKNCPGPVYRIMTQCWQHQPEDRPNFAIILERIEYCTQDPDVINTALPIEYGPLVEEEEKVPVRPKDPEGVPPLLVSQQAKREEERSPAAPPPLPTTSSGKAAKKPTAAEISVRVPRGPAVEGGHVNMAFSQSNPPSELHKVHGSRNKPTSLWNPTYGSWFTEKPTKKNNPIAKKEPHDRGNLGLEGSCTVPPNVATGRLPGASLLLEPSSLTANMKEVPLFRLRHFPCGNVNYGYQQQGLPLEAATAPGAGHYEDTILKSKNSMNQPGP

Molecule: CNS(=O)(=O)c1ccccc1Nc1nc(Nc2ccc3c(c2)CNC(=O)CCN3C(=O)C(F)(F)F)ncc1Cl [Example 1303, 2-{5-Chloro-2-[4-oxo-1-(2,2,2-trifluoro-acetyl)-1,2,3,4,5,6-hexahydro-benzo[b][1,5]diazocin-8-ylamino]-pyrimidin-4-ylamino}-N-methyl-benzenesulfonamide]
- IC50 [1, 3]: < 100 nM
- IC50 [2, 4]: < 100 nM

Molecule: CN1C(=O)OCCc2cc(Nc3ncc(Cl)c(Nc4cccc5[nH]ncc45)n3)ccc21 [Example 1769, 2-[5-Chloro-4-(1H-indazol-4-ylamino)-pyrimidin-2-ylamino]-5-methyl-8,9-dihydro-5H-7-oxa-5-aza-benzocyclohepten-6-one]
- IC50 [1, 5]: 100 to 1000 nM
- IC50 [2, 6]: 100 to 1000 nM

Molecule: COc1c(Nc2ncc(Cl)c(N[C@H]3[C@@H](C(N)=O)[C@@H]4C=C[C@H]3C4)n2)ccc2c1CCCC(N1CCOCC1)C2 (single isomer, unassigned) [Example 941]
- IC50 [1, 7]: < 100 nM
- IC50 ([2]; read-out: cMet Activity (c-Met Kinase Inhibition, IC50), 1 μM ATP (Km level)): > 10000 nM

Molecule: COCCOC(=O)c1ccccc1Nc1nc(Nc2cc3c(cc2OC)CCC(NCCO)CC3)ncc1Cl (centres unmarked) [Example 1093, 2-{5-Chloro-2-[7-(2-hydroxy-ethylamino)-3-methoxy-6,7,8,9-tetrahydro-5H-benzocyclohepten-2-ylamino]-pyrimidin-4-ylamino}-benzoic acid 2-methoxy-ethyl ester]
- IC50 [1, 3]: < 100 nM
- IC50 [2, 4]: > 10000 nM

Molecule: CNC(=O)c1ccccc1Nc1nc(Nc2ccc3c(c2)C2CN(S(C)(=O)=O)CC3O2)ncc1Cl (single isomer, unassigned) [Example 183, 2-[5-Chloro-2-(10-methanesulfonyl-12-oxa-10-aza-tricyclo[6.3.1.0*2,7*]dodeca-2(7),3,5-trien-4-ylamino)-pyrimidin-4-ylamino]-N-methyl-benzamide]
- IC50 [1, 8]: < 100 nM
- IC50 [2, 9]: < 100 nM

Molecule: CCN1CCN(CC)c2cc(Nc3ncc(Cl)c(Nc4ccc(N5CCOCC5)cc4OC)n3)ccc2C1 [Example 712, 5-Chloro-N*2*-(1,4-diethyl-2,3,4,5-tetrahydro-1H-benzo[e][1,4]diazepin-8-yl)-N*4*-(2-methoxy-4-morpholin-4-yl-phenyl)-pyrimidin-2,4-diamine]
- IC50 [1, 7]: < 100 nM
- IC50 [2, 10]: 1000 to 10000 nM

Molecule: C=CCOc1cc(N(C)C)cc(F)c1Nc1nc(Nc2ccc3c(c2)CCN(CCOC)CC3)ncc1Cl [Example 1710, N*4*-(2-Allyloxy-4-dimethylamino-6-fluoro-phenyl)-5-chloro-N*2*-[3-(2-methoxy-ethyl)-2,3,4,5-tetrahydro-1H-benzo[d]azepin-7-yl]-pyrimidine-2,4-diamine]
- IC50 [1, 5]: < 100 nM
- IC50 [2, 6]: 100 to 1000 nM

Molecule: COCCN1CCc2ccc(Nc3ncc(Cl)c(NC4CCCCC4)n3)cc2CC1 [Example 1377, 5-Chloro-N(4)-cyclohexyl-N(2)-[3-(2-methoxy-ethyl)-2,3,4,5-tetrahydro-1H-benzo[d]azepin-7-yl]-pyrimidine-2,4-diamine]
- IC50 [1, 3]: < 100 nM
- IC50 [2, 4]: 100 to 1000 nM

Molecule: COCCN1CCCC(C)(C)c2ccc(Nc3ncc(Cl)c(Nc4ccc(N5CCOCC5)cc4OC)n3)cc21 [Example 1601, 5-Chloro-N*2*-[1-(2-methoxy-ethyl)-5,5-dimethyl-2,3,4,5-tetrahydro-1H-benzo[b]azepin-8-yl]-N*4*-(2-methoxy-4-morpholin-4-yl-phenyl)-pyrimidine-2,4-diamine]
- IC50 [1, 5]: 100 to 1000 nM
- IC50 [2, 6]: > 10000 nM

Molecule: CC(=O)N[C@@H]1CCCC[C@H]1Nc1nc(Nc2ccc3c(c2)C(C)(C)CCC(=O)N3)ncc1Cl [Example 395, N-{(1R,2R)-2-[5-Chloro-2-(5,5-dimethyl-2-oxo-2,3,4,5-tetrahydro-1H-benzo[b]azepin-7-ylamino)-pyrimidin-4-ylamino]-cyclohexyl}-acetamide]
- IC50 [1, 8]: < 100 nM
- IC50 [2, 9]: 100 to 1000 nM

Molecule: COc1cc2c(cc1Nc1ncc(Cl)c(Nc3ccccc3-c3nccn3C)n1)CCN(CC(=O)N(C)C)CC2 [Example 999, 2-(7-{5-Chloro-4-[2-(1-methyl-1H-imidazol-2-yl)-phenylamino]-pyrimidin-2-ylamino}-8-methoxy-1,2,4,5-tetrahydro-benzo[d]azepin-3-yl)-N,N-dimethyl-acetamide]
- IC50 [1, 7]: < 100 nM
- IC50 [2, 10]: > 10000 nM

Molecule: CNC(=O)c1ccccc1Nc1nc(Nc2ccc3c(c2)C(C)(C)CCC(=O)N3C)ncc1Cl [Example 384, 2-[5-Chloro-2-(1,5,5-trimethyl-2-oxo-2,3,4,5-tetrahydro-1H-benzo[b]azepin-7-ylamino)-pyrimidin-4-ylamino]-N-methyl-benzamide]
- IC50 [1, 8]: < 100 nM
- IC50 [2, 9]: < 100 nM

Molecule: CCN1C(=O)CCCc2c1ccc(Nc1ncc(Cl)c(N[C@@H]3CCCC[C@H]3NS(C)(=O)=O)n1)c2OC [Example 120, N-{(1R,2R)-2-[5-Chloro-2-(1-ethyl-6-methoxy-2-oxo-2,3,4,5-tetrahydro-1H-benzo[b]azepin-7-ylamino)-pyrimidin-4-ylamino]-cyclohexyl}-methanesulfonamide]
- IC50 [1, 8]: < 100 nM
- IC50 [2, 9]: > 10000 nM

Molecule: COCCNC1CCc2cc(Nc3ncc(Cl)c(Nc4ccccc4S(=O)(=O)N(C)C)n3)c(OC)cc2CC1 (centres unmarked) [Example 1083, 2-{5-Chloro-2-[3-methoxy-7-(2-methoxy-ethylamino)-6,7,8,9-tetrahydro-5H-benzocyclohepten-2-ylamino]-pyrimidin-4-ylamino}-N,N-dimethyl-benzenesulfonamide]
- IC50 [1, 3]: < 100 nM
- IC50 [2, 4]: 1000 to 10000 nM

Molecule: 5-Chloro-N*2*-[7-(2,2-difluoro-ethylamino)-1-methoxy-6,7,8,9-tetrahydro-5H-benzocyclohepten-2-yl]-N*4*-methyl-N*4*-[2-(propane-2-sulfonyl)-phenyl]-pyrimidine-2,4-diamine [Example 678]
- IC50 [1, 7]: < 100 nM
- IC50 [2, 10]: > 10000 nM

Molecule: COc1cc2c(cc1Nc1ncc(Cl)c(Nc3ccccc3S(=O)(=O)N3CCC(O)C3)n1)CCN(CC(C)O)CC2 (centres unmarked) [Example 1552, 1-(2-{5-Chloro-2-[3-(2-hydroxy-propyl)-8-methoxy-2,3,4,5-tetrahydro-1H-3-benzazepin-7-ylamino]-pyrimidin-4-ylamino}-benzenesulfonyl)-pyrrolidin-3-ol]
- IC50 [1, 5]: < 100 nM
- IC50 [2, 6]: 1000 to 10000 nM

Molecule: CCN1C(=O)CCC(C)(C)c2ccc(Nc3ncc(Cl)c(Nc4ccc(N(C)C)cc4S(=O)(=O)N(C)C)n3)cc21 [Example 850, 2-[5-Chloro-2-(1-ethyl-5,5-dimethyl-2-oxo-2,3,4,5-tetrahydro-1H-benzo[b]azepin-8-ylamino)-pyrimidin-4-ylamino]-5-dimethylamino-N,N-dimethyl-benzenesulfonamide]
- IC50 [1, 7]: < 100 nM
- IC50 [2, 10]: 100 to 1000 nM

Molecule: COc1cc2c(cc1Nc1ncc(Cl)c(Nc3ccccc3-c3ncccc3C)n1)CCN(CC(=O)N(C)C)CC2 [Example 1000, 2-(7-{5-Chloro-4-[2-(3-methyl-pyridin-2-yl)-phenylamino]-pyrimidin-2-ylamino}-8-methoxy-1,2,4,5-tetrahydro-benzo[d]azepin-3-yl)-N,N-dimethyl-acetamide]
- IC50 [1, 7]: < 100 nM
- IC50 [2, 10]: > 10000 nM

Molecule: COCCN1CCc2ccc(Nc3ncc(Cl)c(Nc4cc(C)n[nH]4)n3)cc2CC1 [Example 955, 5-Chloro-N(2)-[3-(2-methoxy-ethyl)-2,3,4,5-tetrahydro-1H-3-benzazepin-7-yl]-N(4)-(5-methyl-2H-pyrazol-3-yl)-pyrimidine-2,4-diamine]
- IC50 [1, 7]: 100 to 1000 nM
- IC50 [2, 10]: 1000 to 10000 nM
